Measured values published in PMC4526662, “A Pyranose-2-Phosphate Motif Is Responsible for Both Antibiotic Import and Quorum-Sensing Regulation in Agrobacterium tumefaciens” (PLoS Pathogens, 2015).
“And” between values parts separate entries of the source, which are not always exact repeats. Equal values may be shown once. “Also recorded” adds a separate entry of the source.

Assays:
AccA [1] = molecular target: T1, AccA (Agrobacterium fabrum, UniProt Q52012); experiment: biochemical; format: binding, Agrobacterium tumefaciens C58; conditions: for fluorescence intensity / autofluorescence signal change on incubating AccA with ligand: tryptophan fluorescence, excitation 295 nm, emission 335 nm
Experimental: Ligand binding to the protein AccA was investigated using tryptophan fluorescence spectroscopy, a method exploiting significant conformational changes accompanying the binding.
All experiments were performed at 22°C in 3 x 15 mm quartz cuvettes using Cary Eclypse spectrofluorometer (Varian) in 25 mM Tris-HCl pH 8.0 and 150 mM NaCl with a fixed amount of proteins (2 μM) and increasing concentrations of ligand. […] The data were analysed using Origin 7 software and fitted to the equation f = ΔFluorescencemax*abs(x)/(K D+abs(x)).

AccA [2] = molecular target: T1, AccA; experiment: AccA isothermal titration microcalorimetry; format: binding, Agrobacterium tumefaciens C58; conditions: for binding to AccA detected by microcalorimetry / TΔS / ΔG / ΔH / N (binding stoichiometry) / K (association binding constant): ITC; for K (association binding constant): Ka in M-1
Experimental: (§1) Isothermal titration microcalorimetry experiments were performed with an ITC200 isothermal titration calorimeter from MicroCal (GE Healthcare). The experiments were carried out at 20°C for AccA and 25°C for AccR. […] For agrocin 84 experiment, we inverted the protein and ligand positions: the ligand was in the cell and the protein in the syringe. This strategy was chosen to overcome the small amount of agrocin 84. The experimental data were fitted to theoretical titration curves with software supplied by MicroCal (ORIGIN). This software uses the relationship between the heat generated by each injection and ΔH (enthalpy change in Kcal.Mol-1), Ka (the association binding constant in M-1), n (the number of binding sites), total protein concentration and free and total ligand concentrations.
Target sequence in this assay (Q52012 entry or part of it): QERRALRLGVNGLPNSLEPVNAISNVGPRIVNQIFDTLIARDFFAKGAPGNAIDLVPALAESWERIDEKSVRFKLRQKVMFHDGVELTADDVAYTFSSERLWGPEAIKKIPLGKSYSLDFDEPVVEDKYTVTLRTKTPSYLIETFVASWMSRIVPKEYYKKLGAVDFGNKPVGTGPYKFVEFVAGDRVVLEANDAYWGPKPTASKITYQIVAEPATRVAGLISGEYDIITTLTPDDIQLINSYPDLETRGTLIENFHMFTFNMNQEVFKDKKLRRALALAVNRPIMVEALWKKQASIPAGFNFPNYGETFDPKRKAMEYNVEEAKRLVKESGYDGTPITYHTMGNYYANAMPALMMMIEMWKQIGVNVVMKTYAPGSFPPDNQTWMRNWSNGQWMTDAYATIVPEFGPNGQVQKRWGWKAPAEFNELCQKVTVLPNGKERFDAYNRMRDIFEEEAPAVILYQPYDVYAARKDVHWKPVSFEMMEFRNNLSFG

[3] = molecular target: AccR, master transcriptional regulator (transcriptional repressor of the DeoR family) of Agrobacterium tumefaciens C58 (Agrobacterium tumefaciens C58); experiment: native gel or EMSA; native gel electrophoresis of purified recombinant AccR in solution; conditions not given, no figure or methods section for this gel
AccR = molecular target: T2, AccR (Agrobacterium fabrum, UniProt P32104); experiment: AccR isothermal titration microcalorimetry; format: binding, Agrobacterium tumefaciens C58
T2 construct: 6-His tag (C); made in house; host or cells: E. coli C41
Experimental: The question arose about their biological role in A. tumefaciens, especially in relation to regulation of the AccR/quorum-sensing pathway that controls dissemination of the Ti plasmid. We first measured the affinity of the synthetic agrocinopine A towards purified recombinant AccR by isothermal titration microcalorimetry.
as §1

A. tumefaciens C58 [4] = experiment: Quantification of OC8HSL quorum-sensing signal in cell cultures; format: cell-based, Agrobacterium tumefaciens; conditions: 1 mM compound
Experimental: (§2) In complementation assay, the accF wild-type gene was cloned into p6000 [50] plasmid and electroporated into the accF mutant. Rifampicin-resistant recipient strain C58.00 was derived from A. tumefaciens C58 cured of the At and Ti plasmids. A. tumefaciens was cultivated at 28°C in AB minimal medium containing ammonium chloride (1 g/L) and mannitol (2 g/L), or in Luria-Bertani modified medium (LBm; NaCl 5 g/L). The antibiotics gentamycin and rifampicin were added at 25 μg/mL and 100 μg/mL, respectively.
(§3) Overnight LBm cultures of recipient (C58.00) and donor (C58 control) cells were mixed in an equal ratio (1:1). 10 μl of this mix were transferred into 140 μl of AB medium supplemented with mock or 1 mM of agrocinopine A, L-arabinose-2-phosphate and glucose-2-P for static liquid cultures of 24, 48, 72 and 96 hours. Suspension dilutions of these cultures were spotted onto selective agar media to enumerate the different bacterial populations (donor, recipient and Ti plasmid transconjugants). In parallel, to quantify OC8HSLs, aliquots of cell cultures were spotted onto TLC plates (RP-18/UV254, Macherey-Nagel) and incubated with the OC8HSL-bioindicator strain A. tumefaciens NT1(pZLR4) as previously described. Tested samples were compared with a calibration curve obtained with pure OC8HSL (Sigma-Aldrich).

A. tumefaciens C58 [5] = experiment: Ti plasmid conjugation assay; format: cell-based, Agrobacterium tumefaciens; conditions: for Ti plasmid transconjugants: C58 control donor with recipient C58.00, 1 mM compound; for Ti plasmid conjugation: 1 mM compound
Experimental: as §2, §3

A. tumefaciens C58 [6] = experiment: Uptake assay: growth with compound as sole carbon source; format: cell-based, Agrobacterium tumefaciens; conditions: 1 mM in AB media, OD600 monitored for 48 hours
Experimental: This experiment confirmed that the transporter can uptake bulky synthetic molecules such as agrocinopine 3’-O-benzoate into the cell as observed for the toxin agrocin 84, which is also a relatively large molecule.
A single colony of Agrobacterium tumefaciens C58 with pTiC58 derivative pTi::Gm was grown overnight at 28°C in AB media supplemented with mannitol (2 g/L) and gentamicin 25 μg.ml-1. 20 ml of AB media in presence of a carbon source (agrocinopine 3’-O-benzoate or L-arabinose-2-phosphate at a final concentration of 1 mM) or in absence of any carbon source and supplemented with gentamicin (25 μg.ml-1) were inoculated at an initial OD600 of 0.03 and the OD was monitored for 48 hours.

[7] = AccA 2 μM, 22°C, 25 mM Tris-HCl pH 8.0, 150 mM NaCl, one binding site model, ND: no signal detected, read-out: apparent KD (autofluorescence titration)
[8] = accF mutant complemented with accF wild type (p6000)

T2 sequence (P32104 whole entry): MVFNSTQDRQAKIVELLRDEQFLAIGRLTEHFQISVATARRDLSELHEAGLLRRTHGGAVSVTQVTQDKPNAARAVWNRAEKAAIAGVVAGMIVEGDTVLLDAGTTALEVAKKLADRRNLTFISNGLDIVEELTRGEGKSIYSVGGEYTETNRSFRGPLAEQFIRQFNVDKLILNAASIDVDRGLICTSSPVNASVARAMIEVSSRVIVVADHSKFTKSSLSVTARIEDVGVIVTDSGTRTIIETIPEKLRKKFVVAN
Sequence of AccR, master transcriptional regulator (transcriptional repressor of the DeoR family) of Agrobacterium tumefaciens C58 (natural protein) (O30540 whole entry): as the sequence (P32104 whole entry) above

Q: With O=C[C@H](O)[C@@H](O)[C@H](O)[C@H](O)COP(=O)(O)O [glucose-6-phosphate, reference compound] as the compound, how does the “fluorescence intensity / autofluorescence signal change on incubating AccA with ligand” value (AccA [1]) read?
A: no autofluorescence signal changes

Q: How did the “binding to AccA detected by microcalorimetry” value (AccA [2]) turn out when Nc1ncnc2c1ncn2[C@@H]1O[C@H](COP(=O)(O)O)[C@@H](O)[C@H]1O [adenosine monophosphate, reference compound] was run?
A: could not detect any binding

Q: What does the source list for CC(C)OP(=O)(O)O[C@H]1C(O)OC[C@H](O)[C@@H]1O (stereo partly drawn) [L-arabinose-2-isopropylphosphate]?
A: Kd (AccA [1]; [7]): 4.79 ± 0.6 µM; Kd (AccA [2]): 2.2 ± 0.58 µM; TΔS (AccA [2]; 20°C): -8E3 cal/mol/K; ΔG (AccA [2]; 20°C): -31.8 kJ/mol; ΔH (AccA [2]; 20°C): -1.56E4 ± 493 cal/mol; N (binding stoichiometry) (AccA [2]; 20°C, one binding site model): 1.08 ±0.03; K (association binding constant) (AccA [2]; 20°C): 4.72E5 ± 1.2E5

Q: Which stoichiometry N [3] does the source give for “AccR, master transcriptional regulator (transcriptional repressor of the DeoR family) of Agrobacterium tumefaciens C58 (natural protein)” here?
A: 2

Q: phosphate [reference compound] was tested. Which “fluorescence intensity / autofluorescence signal change on incubating AccA with ligand” value (AccA [1]) did it give?
A: No fluorescence intensity change

Q: For O=P(O)(OC1C(O)OCC(O)C1O)OC1C(CO)OC(CO)(OC2OC(CO)C(O)C(O)C2O)C1O (stereo not drawn) [agrocinopine A], which Kd (AccA [1]; [7]) is on record?
A: 1.32 µM and 1.3 µM

Q: What about the Kd (AccA [2]) of the same compound?
A: 0.3 ± 0.03 µM

Q: What about the TΔS (AccA [2]; 20°C) of the same compound?
A: -2.6E3

Q: What about the ΔG (AccA [2]; 20°C) of the same compound?
A: -36 kJ/mol

Q: What about the ΔH (AccA [2]; 20°C) of the same compound?
A: -1.12E4 ± 98 cal/mol

Q: And the “N (binding stoichiometry)” value (AccA [2]; 20°C, one binding site model)?
A: 1 ± 0.006

Q: And the “K (association binding constant)” value (AccA [2]; 20°C)?
A: 2.99E6 ± 2.9E5

Q: What about the “affinity towards purified recombinant AccR” value (AccR; ITC) of the same compound?
A: no affinity was detected

Q: What about the “accumulation of quorum-sensing molecules” value (A. tumefaciens C58 [4]; accF defective mutant) of the same compound?
A: abolished

Q: What about the “accumulation of quorum-sensing molecules” value (A. tumefaciens C58 [4]; [8]) of the same compound?
A: restored

Q: What about the Ti plasmid transconjugants (A. tumefaciens C58 [5]) of the same compound?
A: could also be detected

Q: What about the Ti plasmid conjugation (A. tumefaciens C58 [5]; accF defective mutant donor) of the same compound?
A: abolished

Q: And the Ti plasmid conjugation (A. tumefaciens C58 [5]; [8])?
A: restored

Q: O=P(O)(O)O[C@H]1O[C@H](CO)[C@@H](O)[C@H](O)[C@H]1O [glucose-1-phosphate, reference compound] was tested. Which “fluorescence intensity / autofluorescence signal change on incubating AccA with ligand” value (AccA [1]) did it give?
A: no autofluorescence signal changes

Q: O=C(OC1C(OP(=O)(O)OC2C(O)OCC(O)C2O)C(CO)OC1(CO)OC1OC(CO)C(O)C(O)C1O)c1ccccc1 (stereo not drawn) [agrocinopine 3’-O-benzoate] was tested. Which Kd (AccA [1]; apparent KD (autofluorescence titration), AccA 2 μM, 22°C, 25 mM Tris-HCl pH 8.0, 150 mM NaCl, one binding site model, ND: no signal detected) did it give?
A: 5.88 ± 1.6 µM

Q: What about the Kd (AccA [2]) of the same compound?
A: 7.5 ± 2.2 µM

Q: And the “fold lower affinity with AccA in comparison with agrocinopine A” value (AccA [2]; ITC KD values)?
A: 25 fold

Q: What about the TΔS (AccA [2]; 20°C) of the same compound?
A: 3.2E3

Q: What about the ΔG (AccA [2]; 20°C) of the same compound?
A: -28.9 kJ/mol

Q: And the ΔH (AccA [2]; 20°C)?
A: -3.7E3 ± 374 cal/mol

Q: What about the “N (binding stoichiometry)” value (AccA [2]; 20°C, one binding site model) of the same compound?
A: 0.99 ± 0.06

Q: And the “K (association binding constant)” value (AccA [2]; 20°C)?
A: 1.33E5

Q: And the “bacterial growth with compound as sole carbon source” value (A. tumefaciens C58 [6])?
A: used as nutrient by the bacteria as indicated by bacterial growth

Q: Which Kd (AccA [1]; [7]) does the source give for O=C[C@H](OP(=O)(O)O)[C@@H](O)[C@@H](O)CO [L-arabinose-2-phosphate] here?
A: 2.93 ± 0.66 µM

Q: And the Kd (AccA [2])?
A: 1.33 ± 0.12 µM

Q: And the TΔS (AccA [2]; 20°C)?
A: -3.2E3

Q: And the ΔG (AccA [2]; 20°C)?
A: -33.1 kJ/mol

Q: What about the ΔH (AccA [2]; 20°C) of the same compound?
A: -1.11E4 ± 168 cal/mol

Q: What about the “N (binding stoichiometry)” value (AccA [2]; 20°C, one binding site model) of the same compound?
A: 0.95 ± 0.01

Q: And the “K (association binding constant)” value (AccA [2]; 20°C)?
A: 7.54E5 ±6.5E4

Q: And the Kd (AccR)?
A: 0.11 ± 0.06 µM

Q: What about the “n1 (stoichiometry, first step)” value (AccR; ITC, 25°C) of the same compound?
A: 0.4

Q: What about the “n2 (stoichiometry, second step)” value (AccR; ITC, 25°C) of the same compound?
A: 0.9

Q: And the “accumulation of quorum-sensing molecules” value (A. tumefaciens C58 [4]; accF defective mutant)?
A: still observed

Q: And the Ti plasmid transconjugants (A. tumefaciens C58 [5])?
A: could also be detected

Q: What about the Ti plasmid conjugation (A. tumefaciens C58 [5]; accF defective mutant donor) of the same compound?
A: still activated

Q: O=P(O)(O)O[C@H]1C(O)O[C@H](CO)[C@@H](O)[C@@H]1O (stereo partly drawn) was tested. Which Kd (AccA [1]) did it give?
A: 2.5 µM

Q: agrocin 84 [reference compound] was tested. Which “fluorescence intensity / autofluorescence signal change on incubating AccA with ligand” value (AccA [1]) did it give?
A: no signal was measured

Q: And the Kd (AccA [2]; 20°C, one binding site model, read-out: mean KD (isothermal titration microcalorimetry))?
A: 1.5 ± 0.41 µM

Q: What about the TΔS (AccA [2]; 20°C) of the same compound?
A: -3.6E4

Q: What about the ΔG (AccA [2]; 20°C) of the same compound?
A: -32.2 kJ/mol

Q: And the ΔH (AccA [2]; 20°C)?
A: -183 ± 15.9 kJ/mol

Q: And the “N (binding stoichiometry)” value (AccA [2]; 20°C, one binding site model)?
A: 0.8 ± 0.043

Q: And the “K (association binding constant)” value (AccA [2]; 20°C)?
A: 6.83E5 ± 1.8E5

Q: OC1OC[C@H](O)[C@H](O)[C@H]1O (mixture of isomers) [L-arabinose, reference compound] was tested. Which “fluorescence intensity / autofluorescence signal change on incubating AccA with ligand” value (AccA [1]) did it give?
A: No fluorescence intensity change

Q: And the “binding to AccA detected by microcalorimetry” value (AccA [2])?
A: No signal detected; also recorded: could not detect any binding
